Laboratory results taken from PubChem BioAssay AID1963850 (Molecular Pharmacology Branch, DTP, NCI, 2024).

Tested on: 192522-019-R-J2-PDC complex tumor spheroid viability
Assay: Anticancer human tumor 192522-019-R-J2-PDC patient-derived colon adenocarcinoma cell line growth inhibition [POLQ]
Details: for IC50: curve of first compound; for viability, T/C: stronger effect = lower value
Procedure, shortened: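 Complex spheroid viability model combining PDC tumour cells with endothelial (HUVEC) and MSC stromal cells. Novobiocin, ART-558 or RP6685 were tested singly and in combination with standard and investigational anticancer drugs. Each was titrated in half-log steps from near clinical Cmax, or from 10 microM where Cmax was unknown.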

[1] = second compound 0.0316 µM, first compound 0.0316 µM
[2] = second compound 0.0316 µM, first compound 0.1 µM
[3] = second compound 0.0316 µM, first compound 0.316 µM
[4] = second compound 0.0316 µM, first compound 1 µM
[5] = second compound 0.0316 µM, first compound 3.16 µM
[6] = second compound 0.0316 µM, first compound 10 µM
[7] = second compound 0.1 µM, first compound 0.0316 µM
[8] = second compound 0.1 µM, first compound 0.1 µM
[9] = second compound 0.1 µM, first compound 0.316 µM
[10] = second compound 0.1 µM, first compound 1 µM
[11] = second compound 0.1 µM, first compound 3.16 µM
[12] = second compound 0.1 µM, first compound 10 µM
[13] = second compound 0.316 µM, first compound 0.0316 µM
[14] = second compound 0.316 µM, first compound 0.1 µM
[15] = second compound 0.316 µM, first compound 0.316 µM
[16] = second compound 0.316 µM, first compound 1 µM
[17] = second compound 0.316 µM, first compound 3.16 µM
[18] = second compound 0.316 µM, first compound 10 µM
[19] = second compound 1 µM, first compound 0.0316 µM
[20] = second compound 1 µM, first compound 0.1 µM
[21] = second compound 1 µM, first compound 0.316 µM
[22] = second compound 1 µM, first compound 1 µM
[23] = second compound 1 µM, first compound 3.16 µM
[24] = second compound 1 µM, first compound 10 µM
[25] = second compound 3.16 µM, first compound 0.0316 µM
[26] = second compound 3.16 µM, first compound 0.1 µM
[27] = second compound 3.16 µM, first compound 0.316 µM
[28] = second compound 3.16 µM, first compound 1 µM
[29] = second compound 3.16 µM, first compound 3.16 µM
[30] = second compound 3.16 µM, first compound 10 µM
[31] = second compound 10 µM, first compound 0.0316 µM
[32] = second compound 10 µM, first compound 0.1 µM
[33] = second compound 10 µM, first compound 0.316 µM
[34] = second compound 10 µM, first compound 1 µM
[35] = second compound 10 µM, first compound 3.16 µM
[36] = second compound 10 µM, first compound 10 µM
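Also: spheroids exposed to drugs for seven days before reading.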
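For viability, T/C in this document: 100% = DMSO vehicle control viability in luminescence.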

`COc1cc2cc(C(=O)CCC(=O)O)sc2cc1OC` + COC1C(OC(N)=O)C(O)C(Oc2ccc3c(O)c(NC(=O)c4ccc(O)c(CC=C(C)C)c4)c(=O)oc3c2C)OC1(C)C gave an IC50 (second compound 0.0316 µM) greater than 10 µM, an IC50 (second compound 0.1 µM) greater than 10 µM and an IC50 (second compound 0.316 µM) greater than 10 µM. The IC50 (second compound 1 µM) was greater than 10 µM, the IC50 (second compound 3.16 µM) was greater than 10 µM and the IC50 (second compound 10 µM) was greater than 10 µM. For the same compound, the viability, T/C [1] was 101%, the viability, T/C [2] was 94.3% and the viability, T/C [3] was 97.7%. It also gave a viability, T/C [4] of 101%, a viability, T/C [5] of 102% and a viability, T/C [6] of 91.9%. For the same compound, the viability, T/C [7] was 110%, the viability, T/C [8] was 98% and the viability, T/C [9] was 96.9%. For the same compound, the viability, T/C [10] was 97%, the viability, T/C [11] was 94.9% and the viability, T/C [12] was 106%. It also gave a viability, T/C [13] of 105%, a viability, T/C [14] of 88.7% and a viability, T/C [15] of 98.6%. It also gave a viability, T/C [16] of 105%, a viability, T/C [17] of 96.9% and a viability, T/C [18] of 105%. It also gave a viability, T/C [19] of 105%, a viability, T/C [20] of 97.7% and a viability, T/C [21] of 104%. For the same compound, the viability, T/C [22] was 111%, the viability, T/C [23] was 105% and the viability, T/C [24] was 101%. The viability, T/C [25] was 103%, the viability, T/C [26] was 103% and the viability, T/C [27] was 107%. It also gave a viability, T/C [28] of 105%, a viability, T/C [29] of 114% and a viability, T/C [30] of 96.9%. The viability, T/C [31] was 102%, the viability, T/C [32] was 88.7% and the viability, T/C [33] was 109%. For the same compound, the viability, T/C [34] was 109%, the viability, T/C [35] was 112% and the viability, T/C [36] was 101%.
In the case of `Cn1ncnc1[C@H]1c2n[nH]c(=O)c3cc(F)cc(c23)N[C@@H]1c1ccc(F)cc1` + COC1C(OC(N)=O)C(O)C(Oc2ccc3c(O)c(NC(=O)c4ccc(O)c(CC=C(C)C)c4)c(=O)oc3c2C)OC1(C)C, the IC50 (second compound 0.0316 µM) is reported as greater than 0.1 µM, the IC50 (second compound 0.1 µM) is reported as greater than 0.1 µM and the IC50 (second compound 0.316 µM) is reported as greater than 0.1 µM. It also gave an IC50 (second compound 1 µM) greater than 0.1 µM, an IC50 (second compound 3.16 µM) greater than 0.1 µM and an IC50 (second compound 10 µM) greater than 0.1 µM. The viability, T/C (second compound 0.0316 µM, first compound 0.000316 µM) was 118%, the viability, T/C (second compound 0.0316 µM, first compound 0.001 µM) was 91.9% and the viability, T/C (second compound 0.0316 µM, first compound 0.00316 µM) was 95.2%. It also gave a viability, T/C (second compound 0.0316 µM, first compound 0.01 µM) of 96.6%, a viability, T/C [1] of 102% and a viability, T/C [2] of 91.4%. For the same compound, the viability, T/C (second compound 0.1 µM, first compound 0.000316 µM) was 103%, the viability, T/C (second compound 0.1 µM, first compound 0.001 µM) was 100% and the viability, T/C (second compound 0.1 µM, first compound 0.00316 µM) was 103%. It also gave a viability, T/C (second compound 0.1 µM, first compound 0.01 µM) of 103%, a viability, T/C [7] of 100% and a viability, T/C [8] of 97.2%. It also gave a viability, T/C (second compound 0.316 µM, first compound 0.000316 µM) of 99.9%, a viability, T/C (second compound 0.316 µM, first compound 0.001 µM) of 99.2% and a viability, T/C (second compound 0.316 µM, first compound 0.00316 µM) of 99.4%. For the same compound, the viability, T/C (second compound 0.316 µM, first compound 0.01 µM) was 97.4%, the viability, T/C [13] was 93.8% and the viability, T/C [14] was 87.2%. For the same compound, the viability, T/C (second compound 1 µM, first compound 0.000316 µM) was 98.8%, the viability, T/C (second compound 1 µM, first compound 0.001 µM) was 95.6% and the viability, T/C (second compound 1 µM, first compound 0.00316 µM) was 101%. For the same compound, the viability, T/C (second compound 1 µM, first compound 0.01 µM) was 99.2%, the viability, T/C [19] was 86.5% and the viability, T/C [20] was 95.1%. For the same compound, the viability, T/C (second compound 3.16 µM, first compound 0.000316 µM) was 110%, the viability, T/C (second compound 3.16 µM, first compound 0.001 µM) was 98.8% and the viability, T/C (second compound 3.16 µM, first compound 0.00316 µM) was 108%. The viability, T/C (second compound 3.16 µM, first compound 0.01 µM) was 98.1%, the viability, T/C [25] was 95.8% and the viability, T/C [26] was 90.5%. For the same compound, the viability, T/C (second compound 10 µM, first compound 0.000316 µM) was 108%, the viability, T/C (second compound 10 µM, first compound 0.001 µM) was 89.8% and the viability, T/C (second compound 10 µM, first compound 0.00316 µM) was 96.4%. For the same compound, the viability, T/C (second compound 10 µM, first compound 0.01 µM) was 102%, the viability, T/C [31] was 107% and the viability, T/C [32] was 94.4%.
With `Nc1ccn(C2OC(CO)C(O)C2(F)F)c(=O)n1` (stereo unspecified) + COC1C(OC(N)=O)C(O)C(Oc2ccc3c(O)c(NC(=O)c4ccc(O)c(CC=C(C)C)c4)c(=O)oc3c2C)OC1(C)C the IC50 (second compound 0.0316 µM) was greater than 10 µM, the IC50 (second compound 0.1 µM) was greater than 10 µM and the IC50 (second compound 0.316 µM) was greater than 10 µM. The IC50 (second compound 1 µM) was greater than 10 µM, the IC50 (second compound 3.16 µM) was greater than 10 µM and the IC50 (second compound 10 µM) was greater than 10 µM. For the same compound, the viability, T/C [1] was 98.8%, the viability, T/C [2] was 72.9% and the viability, T/C [3] was 75.7%. The viability, T/C [4] was 63.5%, the viability, T/C [5] was 66% and the viability, T/C [6] was 53.9%. For the same compound, the viability, T/C [7] was 95.6%, the viability, T/C [8] was 80.1% and the viability, T/C [9] was 76.5%. The viability, T/C [10] was 66%, the viability, T/C [11] was 58% and the viability, T/C [12] was 57.3%. For the same compound, the viability, T/C [13] was 90.2%, the viability, T/C [14] was 79.7% and the viability, T/C [15] was 72.6%. For the same compound, the viability, T/C [16] was 62.4%, the viability, T/C [17] was 60.3% and the viability, T/C [18] was 59.5%. The viability, T/C [19] was 86.1%, the viability, T/C [20] was 84.9% and the viability, T/C [21] was 73.9%. For the same compound, the viability, T/C [22] was 72%, the viability, T/C [23] was 56.2% and the viability, T/C [24] was 58.4%. It also gave a viability, T/C [25] of 91.9%, a viability, T/C [26] of 87.3% and a viability, T/C [27] of 74.8%. The viability, T/C [28] was 62.9%, the viability, T/C [29] was 62.6% and the viability, T/C [30] was 53.5%. It also gave a viability, T/C [31] of 95.8%, a viability, T/C [32] of 89.4% and a viability, T/C [33] of 75.7%. For the same compound, the viability, T/C [34] was 65.1%, the viability, T/C [35] was 66.9% and the viability, T/C [36] was 58.7%.
